# From patent US6403123B1, “Method for topical treatment of anthralin-responsive dermatological disorders” (priority 2000, dated 2002)
# Columns and labels:
# Format in all cases: in vivo, human
# psoriasis [1] = test: Topical treatment of psoriasis patients by the method: anthralin formulation, then wax formulation, then talc powder; details: person
# Text: In accordance with the present invention, the anthralin formulation is first topically applied to the involved skin area, or skin lesions, such as psoriatic plaques or eczema, of a patient in need of such treatment. […] The anthralin formulation may be applied by any means which provides a relatively uniform layer of anthralin formulation on the involved area. Suitable means of application include spraying, roll-on, and application using a brush, saturated cotton gauze, pad, sponge-tipped applicator, and the like. As the anthralin formulation penetrates into the lesions or evaporates, any unabsorbed anthralin formulation on the lesion surface can be wiped off with a tissue, paper towel, cloth or the like. Thereafter, a wax formulation is applied to the lesion to cover the anthralin formulation-treated area. The wax formulation may be applied using any application method that allows for applying a relatively uniform layer of the wax formulation. Such application methods include, but are not limited to, spraying, roll-on, and application by brush, cotton gauze, pad, sponge-tipped applicator, and the like. As the vehicle(s) of the wax formulation evaporate, a thin film of wax will be formed to cover the lesion surface of the involved area. […] Finally, a powder, such as talc, may then be optionally applied over the wax film in order to eliminate any remaining anthralin thereby further ensuring that staining of clothing or other objects is avoided. […] The powder may be applied by dusting using a puff or pad, sprinkling, spreading and the like. The method was typically carried out as follows. A liquid anthralin formulation as formulated in Example 1(A) was topically applied to skin lesions once to twice daily by the patient using a saturated cotton pad. As the anthralin penetrated into the lesions and the solvents evaporated, a tissue or paper towel was used to wipe off excess materials from the surface of the lesions. The wax formulation as formulated in Example 2(B) was topically applied to the lesions. […]
# [2] = Staining of skin and clothing and skin irritation during the topical anthralin method
# Text: As the anthralin formulation penetrates into the lesions or evaporates, any unabsorbed anthralin formulation on the lesion surface can be wiped off with a tissue, paper towel, cloth or the like. Thereafter, a wax formulation is applied to the lesion to cover the anthralin formulation-treated area. The wax formulation may be applied using any application method that allows for applying a relatively uniform layer of the wax formulation. Such application methods include, but are not limited to, spraying, roll-on, and application by brush, cotton gauze, pad, sponge-tipped applicator, and the like. As the vehicle(s) of the wax formulation evaporate, a thin film of wax will be formed to cover the lesion surface of the involved area. There are two advantages to the presence of the wax film: (a) the thin wax film will act as an occlusive backing to drive the penetration of anthralin deeper into the lesions; and (b) the wax film will prevent any trace amounts of anthralin from contacting clothing or other objects.
# Finally, a powder, such as talc, may then be optionally applied over the wax film in order to eliminate any remaining anthralin thereby further ensuring that staining of clothing or other objects is avoided. […]
# psoriasis [3] = test: Earlier or concurrent treatment of the psoriasis subjects with other drugs (case histories); details: person
structure (smiles),measurement,setting,value
"O=C1c2c(O)cccc2Cc2cccc(O)c21 [anthralin, 1,8,9,-anthracenetriol]",improvement of the psoriasis,"psoriasis [1]; Example 6, anthralin 0.2% increased to 1% by weight, once daily, maintained over one year",approximately 90%
same,skin free of psoriasis,"psoriasis [1]; Example 7, anthralin 0.3% increased to 0.6% by weight, once daily, after four months",approximately 90%
same,improvement of psoriatic lesions,"psoriasis [1]; Example 8, small plaque psoriasis, 3% anthralin formulation once daily, after four months",approximately 75%
same,staining of clothes,"[2]; Example 10, 0.25% anthralin, wax formulation Example 2(B), fine talc, twice a day for four weeks",no staining of their clothes
same,skin irritation and staining to the skin and clothing,"[2]; typical case, about 0.1% to about 0.2% by weight anthralin, once or twice daily on chronic psoriatic plaques",without skin irritation and staining to the skin and clothing
C=C1/C(=C\C=C2/CCC[C@]3(C)[C@@H]([C@H](C)/C=C/[C@@H](O)C4CC4)CC[C@@H]23)C[C@@H](O)C[C@@H]1O [calcipotriene],response of plaque psoriasis,"psoriasis [3]; Example 6, plaque psoriasis for four years, topical treatment",did not improve well
same,response of generalized small plaque psoriasis,"psoriasis [3]; Example 7, psoriasis for seventeen years, topical treatment",did not respond
CN(Cc1cnc2nc(N)nc(N)c2n1)c1ccc(C(=O)N[C@@H](CCC(=O)O)C(=O)O)cc1 [methotrexate],improvement of lesions,"psoriasis [3]; Example 5, generalized plaque psoriasis, intramuscular injections every one to four weeks",approximately 50%
